According to patent publication US5397705A, “Multiply mutated subtilisins” (Amgen Inc., priority 1992, dated 1995):
Where a SMILES comes first, the peptide text is derived from it.

Legend:
Assay in all cases: Kinetics of hydrolysis of succinyl Ala-Ala-Pro-Phe-para-nitroanilide by the subtilisin analog
[1] = molecular target: T1, Bacillus subtilis aprA subtilisin analog [Asp^76, Ser^109, Ser^218] (Asn76Asp, Asn109Ser, Asn218Ser) (Bacillus subtilis, UniProt P04189, N182D/N215S/N324S); assay type: biochemical; details: substrate succinyl Ala-Ala-Pro-Phe-para-nitroanilide
T1 construct: made in house; host or cells: Bacillus subtilis (plasmid pAMB131)
T1 sequence (P04189 107-381 N182D/N215S/N324S): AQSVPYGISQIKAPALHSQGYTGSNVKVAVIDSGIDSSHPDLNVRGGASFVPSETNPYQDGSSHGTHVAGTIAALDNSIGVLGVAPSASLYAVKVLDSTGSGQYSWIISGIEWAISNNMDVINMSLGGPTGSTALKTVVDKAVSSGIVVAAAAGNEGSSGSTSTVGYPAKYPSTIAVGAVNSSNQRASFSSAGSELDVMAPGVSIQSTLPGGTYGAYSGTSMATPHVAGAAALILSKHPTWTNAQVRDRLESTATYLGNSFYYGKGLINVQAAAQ
From the text: (§1) As mentioned earlier, analog [Asp^76, Ser^109, Ser^218, Ala^222 ] has a lower specific activity toward azocasein than analog [Asp^76, Ser^109, Ser^218 ], with an approximate Vm of 0.02 dA/(min-mg/ml) versus 0.08 dA/(min-mg/ml) for [Asp^76, Ser^109, Ser^218 ]. To see if this decreased activity was specific for azocasein, or a general characteristic of the [Asp^76, Ser^109, Ser^218, Ala^222 ] analog, the kinetics of the hydrolysis of the artificial peptide succinyl Ala-Ala-Pro-Phe-para-nitroanilide was analyzed for [Asp^76, Ser^109, Ser^218, Ala^222 ] and [Asp^76, Set^109, Ser^218 ]. […] This specific activity is 4-fold less than that of aprA-subtilisin. The catalytic Ser is at position 221, and it appears that substitutions at position 222 interfere with substrate binding as well as with the rate limiting step of proteolysis.

[2] = molecular target: T2, Bacillus subtilis aprA subtilisin analog [Asp^76, Ser^109, Ser^218, Ala^222] (Asn76Asp, Asn109Ser, Asn218Ser, Met222Ala) (Bacillus subtilis, UniProt P04189, M328A/N182D/N215S/N324S); assay type: biochemical; details: substrate succinyl Ala-Ala-Pro-Phe-para-nitroanilide
T2 construct: made in house; host or cells: Bacillus host cells (plasmid pAMB143)
T2 sequence (P04189 107-381 N182D/N215S/N324S/M328A): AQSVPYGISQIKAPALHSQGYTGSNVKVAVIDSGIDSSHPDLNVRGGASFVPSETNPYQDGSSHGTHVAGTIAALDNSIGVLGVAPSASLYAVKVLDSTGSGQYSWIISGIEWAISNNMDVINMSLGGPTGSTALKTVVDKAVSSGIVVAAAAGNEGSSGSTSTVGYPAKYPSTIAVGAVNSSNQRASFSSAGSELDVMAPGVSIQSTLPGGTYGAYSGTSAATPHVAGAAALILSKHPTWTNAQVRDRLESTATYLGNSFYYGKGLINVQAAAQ
From the text: as §1

[3] = substrate: C[C@H](NC(=O)CCC(=O)O)C(=O)N[C@@H](C)C(=O)N1CCC[C@H]1C(=O)N[C@@H](Cc1ccccc1)C(=O)Nc1ccc([N+](=O)[O-])cc1; assay type: biochemical, Bacillus subtilis; details: other: substrate succinyl Ala-Ala-Pro-Phe-para-nitroanilide
From the text: as §1

`C[C@H](NC(=O)CCC(=O)O)C(=O)N[C@@H](C)C(=O)N1CCC[C@H]1C(=O)N[C@@H](Cc1ccccc1)C(=O)Nc1ccc([N+](=O)[O-])cc1` [succinyl-L-alanyl-L-alanyl-L-prolyl-L-phenylalanyl-p-nitroanilide] (HELM PEPTIDE1{[O=C(O)CCC(=O)[*:2]].A.A.P.F.[O=[N+]([O-])c1ccc(N[*:1])cc1]}$$$$V2.0) was tested, and the Vmax [1] was 7.9 dA/(min-nmole) and the Vmax [2] was 1.1 dA/(min-nmole).

B1: Bacillus subtilis aprA subtilisin analog [Asp^76, Ser^109, Ser^218] (Asn76Asp, Asn109Ser, Asn218Ser) (Bacillus subtilis subsp. subtilis str. 168; … (protein)
chain: AQSVPYGISQIKAPALHSQGYTGSNVKVAVIDSGIDSSHPDLNVRGGASFVPSETNPYQDGSSHGTHVAGTIAALDNSIGVLGVAPSASLYAVKVLDSTGSGQYSWIISGIEWAISNNMDVINMSLGGPTGSTALKTVVDKAVSSGIVVAAAAGNEGSSGSTSTVGYPAKYPSTIAVGAVNSSNQRASFSSAGSELDVMAPGVSIQSTLPGGTYGAYSGTSMATPHVAGAAALILSKHPTWTNAQVRDRLESTATYLGNSFYYGKGLINVQAAAQ
notes: made in house; host or cells: Bacillus subtilis (plasmid pAMB131)
B1 was tested, and the Km ([3]; analog [Asp^76, Ser^109, Ser^218]) was 440 µM.

B2: Bacillus subtilis aprA subtilisin analog [Asp^76, Ser^109, Ser^218, Ala^222] (Asn76Asp, Asn109Ser, Asn218Ser, Met222Ala) (Bacillus subtilis subsp. subtilis … (protein)
chain: AQSVPYGISQIKAPALHSQGYTGSNVKVAVIDSGIDSSHPDLNVRGGASFVPSETNPYQDGSSHGTHVAGTIAALDNSIGVLGVAPSASLYAVKVLDSTGSGQYSWIISGIEWAISNNMDVINMSLGGPTGSTALKTVVDKAVSSGIVVAAAAGNEGSSGSTSTVGYPAKYPSTIAVGAVNSSNQRASFSSAGSELDVMAPGVSIQSTLPGGTYGAYSGTSAATPHVAGAAALILSKHPTWTNAQVRDRLESTATYLGNSFYYGKGLINVQAAAQ
notes: made in house; host or cells: Bacillus host cells (plasmid pAMB143)
B2 gave a Km ([3]; analog [Asp^76, Ser^109, Ser^218, Ala^222]) of 1400 µM.
